{"source": "patent US8114895B2", "about": "“Use of bipyridine compound ‘Caerulomycin A’ derivatives and analogs thereof as immunosuppressive agents” (Council of Science and Industrial Research, priority 2005, dated 2012)", "system": "Splenocytes of BALB/c mice", "assay": "Proliferation of splenocytes stimulated with T cell and B cell mitogens (ConA, LPS)", "format": "cell-based", "procedure": "Splenocytes of BALB/c mice were cultured (5×10^4 cells/well) in 200 μl RPMI/FCS-10% medium and stimulated with different concentrations of either ConA (1 μg/ml and 2 μg/ml) or LPS (5 μg/ml and 10 μg/ml) and Caerulomycin A (0.0003-0.1 μg/ml). The control cultures consisting of splenocytes incubated with medium alone, ConA and DMSO. After 48 h, the cultures were pulsed with 0.5 μCi of [^3H]-thymidine and harvested 14 h later by automatic cell harvester (Skatron, Tranby, Norway). Radioactivity incorporated was measured by liquid scintillation counting and data are expressed as mean counts per minute (cpm).\nExamples establishing the role of Caerulomycin A [isolated from a novel species of Actinoalloteichus] in inducing immunosuppression based on the following: • Splenocytes of BALB/c mice were stimulated with either ConA (1 μg/ml and 2 μg/ml) or LPS (5 μg/ml and 10 μg/ml) and were cultured with different concentrations of Caerulomycin A (0.0003-0.1 μg/ml). After 48 h, the cultures were pulsed with 0.5 μCi of [^3H]-thymidine and harvested 14 h later by automatic cell harvester. Radioactivity incorporated was measured by liquid scintillation counting. • Antigen ovalbumin (100 μg/ml) emulsified in Freund's complete adjuvant was injected in a group consisting of 5 BALB/c mice. […] Radioactivity incorporated was measured by liquid scintillation. The culture supernatants were collected after 48 h and cytokines were measured by ELISA. • Immunosuppressive effect of different doses of Caerulomycin A was monitored on naïve CD4^+ T cells, antigen reactive CD4^+ T cells, Th2 clone and Th1 hybridoma. […] Radioactivity incorporated was measured by liquid scintillation. • Immunosuppressive effect of Caerulomycin A on MLR reaction. […] After 4 days, the cultures were pulsed with 1 μCi of [^3H]-thymidine and harvested 16 h later and radioactivity incorporated was measured by liquid scintillation counting. • In vivo immunosuppressive effect of Caerulomycin A on the proliferation of T cells. […] CD28 and CTLA-4 expression was detected by flowcytometry on the surface of resting and ConA activated CD4^+ T cells. […]"}
{"smiles": "COc1cc(/C=N/O)nc(-c2ccccn2)c1", "note": "[Caerulomycin A, (E)-4-methoxy-2,2′-bipyridine-6-carbaldehyde oxime]", "values": [{"measurement": "proliferation of mitogen stimulated cells at the effective doses", "setting": "Caerulomycin A 0.05 and 0.1 μg/ml", "result": "potent inhibition"}, {"measurement": "proliferation of ConA stimulated cells", "setting": "ConA 1.0 and 2.0 μg/ml, Caerulomycin A 0.0003-0.1 μg/ml, 48 h", "result": "significant decrease"}, {"measurement": "proliferation of cells stimulated with LPS", "setting": "LPS 5 and 10 μg/ml, Caerulomycin A 0.0003-0.1 μg/ml, 48 h", "result": "suppress the proliferation"}]}
